Measurements published in US20080096846A1, “Arene Ruthenium (ll) Compounds And Their Use In Cancer Therapy” (priority 2004, published 2008).

How the values were obtained:
[1] = Hydrolysis kinetic studies by UV-Vis spectroscopy; assay type: physicochemical; set-up: key: —: no hydrolysis observed by UV-VIS; settings: 298 K, methanol stock diluted with water
Procedure: Ultraviolet and Visible (UV-Vis) Spectroscopy: A Perkin-Elmer Lambda-16 UV-Vis spectrophotometer was used with 1-cm path-length quartz cuvettes (0.5 mL) and a PTP1 Peltier temperature controller. Spectra were processed using UVWinlab software for Windows' 95.
Kinetic Studies: Aliquots of stock solutions of the complexes to be tested (4-10 mM) in methanol were diluted to 500 μL with water, and the absorbance at selected wavelengths (determined by hydrolysis in an 19:1 mixture of water and methanol—see table 1 (λ)) was then recorded at 6 to 20 second intervals depending on the hydrolysis rate of each complex at 298 K. The hydrolysis rate constant kH2O for each complex was determined by computer fit of the absorbance/time data for each complex to the first-order rate equation (eq. 1), A=C0+C1e^−kt (1) where C0 and C1 are computer-fitted constants, and A is the absorbance corresponding to time t, and the results are reported in table 1 as the half life (t1/2). Cytoxicity Studies

A2780 cells = test: Cytotoxicity A2780 (1st method), cell counting; assay type: cell-based, human; settings: 24 h cell exposure, cells counted on day 7
Procedure: A2780 (1st Method): A2780 cells were plated on day zero, and the complexes to be tested were added on day 3. The complex was removed on day 4 (i.e., 24 h cell exposure), and after growth in fresh medium in the absence of drug, the cells were counted on day 7. The complexes were stored in the dark at 277 K as a precaution against photochemical decomposition.

[2] = test system: A2780 (human ovarian carcinoma, ECACC 93112519); test: Cytotoxicity A2780 (2nd method), sulforhodamine B; assay type: cell-based; settings: 24 h exposure, then 96 h in fresh medium, SRB
Procedure: A2780 (2nd method) and A549: Cell line A2780 (human ovarian carcinoma, ECACC 93112519) was maintained in medium comprising RPMI-1640 (Sigma) with 5% Fetal Bovine Serum (Invitrogen), 2 mM L-Glutamine (Sigma) and 1% Penicillin/Streptomycin (Invitrogen), in T-75 flasks (Costar). Cells were passaged at approximately 75-90% confluence (1:8 dilution) using 0.25% Trypsin/EDTA (Invitrogen)
(§1) Both cell lines were incubated at 37° C., 5% CO2, in high humidity.
(§2) A2780 carcinoma cells were seeded (150 μL) into 96 well plates (Nunc Maxisorp) at 5000 (±10%) cells per well and incubated at 37° C., 5% CO2 in high humidity for 48 hours. A549 carcinoma cells were seeded (150 μL) into 96 well plates (Nunc Maxisorp) at 2000 (±10%) cells per well and incubated at 37° C., 5% CO2 in high humidity for 24 hours.
(§3) The compounds to be tested were solubilised by sonication in DMSO (Fisher Scientific) to provide 20 mM solutions. Compounds were serially diluted with DMSO before diluting in cell culture medium to give concentrations four-fold greater than the final concentrations required in the assay. The dilutions of compound in culture medium were added to the cell plates (50 μL) in triplicates to achieve final concentrations of 100 μM, 50 μM, 10 μM, 5 μM, 1 μM and 0.1 μM. The final DMSO concentration in each well was 0.5% (v/v). The plates were incubated for 24 hours at 37° C., 5% CO2, in high humidity
After 24 hours incubation, the cells were washed (200 μL) twice with sterile phosphate buffered Saline (Sigma) and the cell culture medium replenished (200 μL). Plates were incubated at 37° C., 5% CO2, in high humidity for 96 hours. After the incubation surviving cells were fixed by the addition of 50% (w/v) Trichloroacetic acid (50 μL) and incubated at 4° C. for 1 hour. Plates were washed three times with excess tap water and air-dried. Cells were dyed by the addition of (100 μL) 0.4% sulforhodamine B (Sigma) solution to the plates followed by five washes (200 μl) with 1% acetic acid solution to remove excess dye before air-drying. Dye was re-solubilised in (200 μL) 10 mM Tris buffer (Fisher Scientific) and the absorbance of each well read at both 565 nm and 690 nm using a BMG Fluorostar microplate reader. The reading at 690 nm was subtracted from the 565 nm reading, and the IC50 values determined by plotting the corrected absorbance value Vs. the compound concentration in the wells (XLfit version 4.0, ID Business Solutions Ltd). These are shown below in table 1

[3] = test system: A549 (human lung carcinoma, ECACC 86012804); test: Cytotoxicity A549, sulforhodamine B; assay type: cell-based; settings: 24 h exposure, then 96 h in fresh medium, SRB
Procedure: Cell Line A549 (human lung carcinoma, ECACC 86012804) was maintained in medium comprising DMEM (Sigma) with 10% Fetal Bovine Serum (Invitrogen), 2 mM L-Glutamine (Invitrogen) and 1% Penicillin/Streptomycin (Invitrogen), in T-75 flasks (Costar). Cells were passaged at approximately 70-90% confluence (1:8 dilution) using 0.25% Trypsin/EDTA (Invitrogen).
as §1, §2, §3
After 24 hours incubation, the cells were washed (200 μL) twice with sterile phosphate buffered Saline (Sigma) and the cell culture medium replenished (200 μL). Plates were incubated at 37° C., 5% CO2, in high humidity for 96 hours. […] Dye was re-solubilised in (200 μL) 10 mM Tris buffer (Fisher Scientific) and the absorbance of each well read at both 565 nm and 690 nm using a BMG Fluorostar microplate reader. The reading at 690 nm was subtracted from the 565 nm reading, and the IC50 values determined by plotting the corrected absorbance value Vs. the compound concentration in the wells (XLfit version 4.0, ID Business Solutions Ltd). […]

| Compound | t1/2 (hydrolysis), dash with footnote a [1] | IC50 (A2780 cells) | IC50 [2] | IC50 [3] |
| --- | --- | --- | --- | --- |
| [(η^6-C6(CH3)6)Ru(en)(pyridine)][PF6]2 [Compound 2] | —^a |  |  |  |
| [(η^6-C6H5C6H5)Ru(en)N3][PF6] [Compound 1] |  | 4 µM | 14 µM | 8.5 µM |
| [(η^6-C6(CH3)6)Ru(en)(SPh)][PF6] [Compound 4] | —^a | 23 µM | 23 µM | 38 µM |
| [(η^6-C6(CH3)6)Ru(en)(p-cyanopyridine)][PF6]2 [Compound 8] |  | 6 µM |  |  |
| Cc1c(C)c(C)c(C)c(C)c1C.F[P-](F)(F)(F)(F)F.NCCN.[Cl][Ru+] [Compound C2, [(η^6-C6(CH3)6)Ru(en)Cl][PF6], reference compound] |  | 9 µM |  |  |
| [(η^6-C6(CH3)6)Ru(en)(3-methylpyridine)][PF6]2 [Compound 9] | —^a | 50 µM | 50 µM |  |
| [(η^6-C6(CH3)6)Ru(en)(3,5-dichloropyridine)][PF6]2 [Compound 6] |  | 23 µM | 18 µM |  |
| F[P-](F)(F)(F)(F)F.NCCN.[Cl][Ru+].c1ccc(-c2ccccc2)cc1 [Compound C1, [(η^6-C6H5C6H5)Ru(en)Cl][PF6], reference compound] |  | 8 µM | 6.5 µM | 11 µM |
| [(η^6-C6(CH3)6)Ru(en)(SCN)][PF6]2 [Compound 3] |  |  | 24 µM |  |
